Here are results for 12 compounds from ChEMBL document CHEMBL5584209, “Novel amino- and hydroxy-functionalized 1,2,4-trioxanes and their antimalarial activity against multidrug-resistant Plasmodium yoelii nigeriensis in Swiss mice via intramuscular and oral route” (2024).

Test [1] relates to Plasmodium yoelii nigeriensis. Briefly: Antimalarial activity against multi-drug resistant Plasmodium yoelii nigeriensis infected in swiss mouse model at 96 mg/kg, po administered for 4 days and measured within 6 to 8 days. Format: functional, organism-based. Conditions: time 6-8 day.
In test [2] the test system is Plasmodium yoelii nigeriensis. The experiment in a line: Antimalarial activity against multi-drug resistant Plasmodium yoelii nigeriensis infected in swiss mouse model assessed as suppression of parasitemia at 96 mg/kg, IM administered for 4 days relative to control. The format is functional. Conditions: time 4 day.
Test [3] concerns Plasmodium yoelii nigeriensis. The experiment in a line: Antimalarial activity against multi-drug resistant Plasmodium yoelii nigeriensis infected in swiss mouse model assessed as suppression of parasitemia at 96 mg/kg, po administered for 4 days relative to control. Format: functional. To be noted: time 4 day.
Test [4] concerns Plasmodium yoelii nigeriensis. The experiment in a line: Antimalarial activity against multi-drug resistant Plasmodium yoelii nigeriensis infected in swiss mouse model at 96 mg/kg, IM administered for 4 days and measured within 6 to 8 days. The format is functional, organism-based. To be noted: time 6-8 day.
Test [5] has as its system Plasmodium yoelii nigeriensis. Briefly: Antimalarial activity against multi-drug resistant Plasmodium yoelii nigeriensis infected in swiss mouse model assessed as suppression of parasitemia at 48 mg/kg, po administered for 4 days relative to control. The format is functional. To be noted: time 4 day.
Test [6] deals with Plasmodium yoelii nigeriensis. Briefly: Antimalarial activity against multi-drug resistant Plasmodium yoelii nigeriensis infected in swiss mouse model assessed as suppression of parasitemia by measuring fold change at 48 mg/kg, po administered for 4 days relative to artemisinin. Format: functional. Conditions: time 4 day.
Test [7] has as its system Plasmodium yoelii nigeriensis. Briefly: Antimalarial activity against multi-drug resistant Plasmodium yoelii nigeriensis infected in swiss mouse model assessed as suppression of parasitemia at 24 mg/kg, po administered for 4 days relative to control. Format: functional. To be noted: time 4 day.
Test [8] relates to Plasmodium yoelii nigeriensis. Briefly: Antimalarial activity against multi-drug resistant Plasmodium yoelii nigeriensis infected in swiss mouse model at 48 mg/kg, po administered for 4 days and measured within 6 to 8 days. The format is functional, organism-based. To be noted: time 6-8 day.
The test system of test [9] is Plasmodium yoelii nigeriensis. The experiment in a line: Antimalarial activity against multi-drug resistant Plasmodium yoelii nigeriensis infected in swiss mouse model assessed as animal survival at 48 mg/kg, IM administered for 4 days and measured after 28 days. Format: functional. Conditions: time 28 day.
The subject of test [10] is Plasmodium yoelii nigeriensis. Briefly: Antimalarial activity against multi-drug resistant Plasmodium yoelii nigeriensis infected in swiss mouse model assessed as animal survival at 96 mg/kg, IM administered for 4 days and measured after 28 days. Format: functional. To be noted: time 28 day.
Test [11] relates to Plasmodium yoelii nigeriensis. Briefly: Antimalarial activity against multi-drug resistant Plasmodium yoelii nigeriensis infected in swiss mouse model assessed as suppression of parasitemia at 48 mg/kg, IM administered for 4 days relative to control. The format is functional. Conditions: time 4 day.
The test system of test [12] is Plasmodium yoelii nigeriensis. Briefly: Antimalarial activity against multi-drug resistant Plasmodium yoelii nigeriensis infected in swiss mouse model at 48 mg/kg, IM administered for 4 days and measured within 6 to 8 days. Format: functional, organism-based. Conditions: time 6-8 day.
The subject of test [13] is Plasmodium yoelii nigeriensis. The experiment in a line: Antimalarial activity against multi-drug resistant Plasmodium yoelii nigeriensis infected in swiss mouse model assessed as animal survival at 96 mg/kg, po administered for 4 days and measured after 28 days. Format: functional. Conditions: time 28 day.
Test [14] has as its system Plasmodium yoelii nigeriensis. Briefly: Antimalarial activity against multi-drug resistant Plasmodium yoelii nigeriensis infected in swiss mouse model assessed as suppression of parasitemia at 24 mg/kg, IM administered for 4 days relative to control. Format: functional. Conditions: time 4 day.

The source made the active and inactive calls. The calls are words filed in the database; no cut-off is given here.

With `C=C(c1ccc(OC(C)(C)CO)cc1)C1COC2(CCCCC2)OO1` (stereo not drawn), the result in test [1] was inactive. Further, the figures for the Activity in test [2] and in test [3] were 100% and 68%, respectively.

Consider `C=C(c1ccc(OC(C)(C)CO)cc1)C1COC2(CCC(=O)CC2)OO1` (stereo not drawn), for which the outcome in test [1] and in [4] was inactive. Also, the Activity amounted to 53% in [2] and 60% in [3].

For the compound `C=C(c1ccc(OC(C)(C)CNc2ccc(F)cc2)cc1)C1COC2(OO1)C1CC3CC(C1)CC2C3` (stereo not drawn), the result in test [1] and in [8] was Active. In addition, the Activity in test [5], in [7] and in test [3] was 100% in each case. In test [6], the “fold change (FC)” value is reported as 2.

For the compound `C=C(c1ccc(OC(C)(C)CO)cc1)C1COC2(CCC(Nc3ccc(Br)cc3)CC2)OO1` (stereo not drawn), the Survival in [9] and in test [10] was over 28 days in each case. In test [1], the outcome was inactive. Also, the result in test [4] and in test [12] was Active. The Activity in [11], in [2] and in test [3] was 100% throughout.

With `C=C(c1ccc(OC(C)(C)CO)cc1)C1COC2(CCCC2)OO1` (stereo not drawn), the outcome in test [1] was inactive. In addition, the Activity is recorded as 98% in test [2] and 53% in [3].

As to `C=C(c1ccc(OC(C)(C)CNc2ccc(Br)cc2)cc1)C1COC2(CCCCC2)OO1` (stereo not drawn), the outcome in [1] was Active. In addition, the Survival in test [13] is over 28 days. Further, the Activity in test [2] and in test [3] was 100% each time.

Regarding `C=C(c1ccc(OC(C)(C)CNc2cc(Cl)cc(Cl)c2)cc1)C1COC2(CCCC2)OO1` (stereo not drawn), the result in test [1] was Active. The Activity in test [5] and in test [3] was 100% in each case. Besides, the Survival in test [13] is over 28 days.

Consider `C=C(c1ccc(OC(C)(C)CNc2ccc(C)cc2)cc1)C1COC2(CCCCC2)OO1` (stereo not drawn), for which the Activity in test [2] was determined as 99%; in test [3], 100%.

Regarding `C=C(c1ccc(OC(C)(C)CNc2ccc(C(F)(F)F)cc2)cc1)C1COC2(CCCC2)OO1` (stereo not drawn), in test [1], the result was Active. In addition, the Activity in test [5] is 100%; in test [2], 65%; in test [3], 100%. In addition, the result in test [4] was inactive. Further, in test [13], the Survival is over 28 days.

As for `C=C(c1ccc(OC(C)(C)CO)cc1)C1COC2(OO1)C1CC3CC(C1)CC2C3` (stereo not drawn), the outcome in test [1], in test [4] and in [12] was Active. In addition, the Activity in [5], in test [11], in test [2] and in [3] was 100% in each case.

Regarding `C[C@@H]1CC[C@H]2[C@@H](C)C(=O)O[C@@H]3O[C@@]4(C)CC[C@@H]1[C@]32OO4` [ARTEMISININ], the outcome in [1] was inactive. For the same compound, the Activity in [11], in [3] and in test [14] was 100% in each case. Moreover, the result in [12] was Active.

Regarding `C=C(c1ccc(OC(C)(C)CNc2ccccc2)cc1)C1COC2(OO1)C1CC3CC(C1)CC2C3` (stereo not drawn), the result in test [1] and in [8] was Active. Also, the Activity in test [5], in [7] and in [3] was 100% throughout. Also, in test [6], the “fold change (FC)” value is reported as 2.
